Experimental data from patent US6895396B2, “Neural network methods to predict enzyme inhibitor or receptor ligand potency” (Albert Einstein College of Medicine of Yeshiva University, priority 1998, dated 2005).
One block for each molecule: values may come before it.

Tests used:
adenosine deaminase = target: T1, adenosine deaminase (Homo sapiens, UniProt P00813); assay: Adenosine deaminase binding free energy, experimental; settings: for ΔG/RT (experimental): binding free energy, dimensionless
T1 sequence (P00813 1-363): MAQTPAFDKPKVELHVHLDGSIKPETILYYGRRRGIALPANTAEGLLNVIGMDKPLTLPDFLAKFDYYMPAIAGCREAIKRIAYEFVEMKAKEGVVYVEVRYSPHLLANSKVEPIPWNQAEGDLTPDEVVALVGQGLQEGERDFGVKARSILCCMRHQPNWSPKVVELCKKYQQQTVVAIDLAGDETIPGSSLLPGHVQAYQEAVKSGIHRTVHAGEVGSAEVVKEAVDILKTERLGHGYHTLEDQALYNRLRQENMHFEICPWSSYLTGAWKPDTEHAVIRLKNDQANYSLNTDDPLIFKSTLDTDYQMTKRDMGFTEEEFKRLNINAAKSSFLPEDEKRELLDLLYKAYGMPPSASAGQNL

cytidine deaminase = cytidine deaminase (Escherichia coli, UniProt P0ABF6); settings: binding free energy from the literature; cited from earlier work
cytidine deaminase, sequence (P0ABF6 whole entry): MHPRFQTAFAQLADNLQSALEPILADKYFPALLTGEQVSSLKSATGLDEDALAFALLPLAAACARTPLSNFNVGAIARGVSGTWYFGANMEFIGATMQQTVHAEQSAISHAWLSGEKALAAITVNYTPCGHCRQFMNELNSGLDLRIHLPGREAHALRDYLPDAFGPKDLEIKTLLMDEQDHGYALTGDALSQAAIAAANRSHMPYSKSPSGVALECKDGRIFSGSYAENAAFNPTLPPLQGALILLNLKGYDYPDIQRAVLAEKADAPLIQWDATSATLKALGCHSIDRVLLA

AMP nucleosidase = settings: binding free energy, dimensionless

inhibitor quality in words (adenosine deaminase): not a good inhibitor | ΔG/RT (experimental) (adenosine deaminase): −12
Molecule: OC[C@H]1O[C@@H](n2cnc3c2N=CNC3)[C@H](O)[C@@H]1O [1,6-dihydropurine ribonucleoside]

Molecule: O=C1NCC=CN1[C@@H]1O[C@H](CO)[C@@H](O)[C@H]1O [3,4-dihydrozebularine]
ΔG/RT (experimental) (cytidine deaminase): −10

Molecule: NC1=NC(=O)N([C@@H]2O[C@H](CO)[C@@H](O)[C@H]2O)CC1 [5,6-dihydrocytidine]
ΔG/RT (experimental) (cytidine deaminase): −9.1

Molecule: Nc1ncnc2c1ncn2[C@@H]1O[C@H](COP(=O)(O)O)[C@@H](O)[C@H]1O [AMP]
ΔG/RT (experimental) (AMP nucleosidase): −9.0

ΔG/RT (experimental) (adenosine deaminase): −10
Molecule: Nc1ncnc2c1ncn2[C@@H]1O[C@H](CO)[C@@H](O)[C@H]1O [adenosine]

Molecule: Nc1ccn([C@@H]2O[C@H](CO)[C@@H](O)[C@H]2O)c(=O)n1 [cytidine]
ΔG/RT (experimental) (cytidine deaminase): −9.9

Molecule: Nc1ncnc2c([C@@H]3O[C@H](CO)[C@@H](O)[C@H]3O)[nH]nc12 [formycin]
ΔG/RT (experimental) (AMP nucleosidase): −17

Molecule: O=C1NC(O)C(Cl)=CN1[C@@H]1O[C@H](CO)[C@@H](O)[C@H]1O (some centres unmarked) [hydrated 5-chloro-pyrimidine-2-one ribonucleoside]
ΔG/RT (experimental) (cytidine deaminase): −19

Molecule: O=C1NC(O)C(F)=CN1[C@@H]1O[C@H](CO)[C@@H](O)[C@H]1O (some centres unmarked) [hydrated 5-fluoro-pyrimidine-2-one ribonucleoside]
ΔG/RT (experimental) (cytidine deaminase): −24

ΔG/RT (experimental) (adenosine deaminase): −29
Molecule: OC[C@H]1O[C@@H](n2cnc3c2NC=N[C@@H]3O)[C@H](O)[C@@H]1O [hydrated purine ribonucleoside]

Molecule: Nc1ncnc2c1ccn2[C@@H]1O[C@H](CO)[C@@H](O)[C@H]1O [tubercidin]
ΔG/RT (experimental) (AMP nucleosidase): −9.9

Molecule: O=c1ccn([C@@H]2O[C@H](CO)[C@@H](O)[C@H]2O)c(=O)[nH]1 [uridine]
ΔG/RT (experimental) (cytidine deaminase): −6.0

ΔG/RT (experimental) (adenosine deaminase): −25
Molecule: (R)-coformycin

Molecule: aminopyrazolo pyrimidine ribonucleotide
ΔG/RT (experimental) (AMP nucleosidase): −12

Molecule: hydrated 5-bromo-pyrimidine-2-one ribonucleoside
ΔG/RT (experimental) (cytidine deaminase): −18

Molecule: hydrated pyrimidine-2-one ribonucleoside
ΔG/RT (experimental) (cytidine deaminase): −27
